Reference: patent US11406642B2, “DNP and DNP prodrug treatment of neuromuscular, neurodegenerative, autoimmune, developmental, traumatic brain injury, concussion, dry eye disease, hearing loss and/or metabolic diseases” (priority 2016, dated 2022)
Like-named read-outs stand apart in the source and are kept apart here.

Tests used:
[1] = Plasma pharmacokinetics of II-38 and 2,4-DNP released from II-38; assay type: in vivo, Sprague-Dawley male rats; settings: for half-life: read-out: t1/2 of II-38; for bioavailability: read-out: % F of II-38
Description: The oral bioavailability and plasma pharmacokinetic (PK) properties of II-38 prodrug and 2,4-DNP-released from II-38 prodrug was investigated in Sprague-Dawley (S-D) male rats after a single i.v. injection of II-38 at 1.6 mg/kg (eq. to 1 mg/kg 2,4-DNP) and an oral dose eq. to 5, 25 and 50 mg/kg of 2,4-DNP. Blood samples were taken up to […].
All procedures that involved the use of rats were conducted in accordance with the guidelines set forth by the University of Arkansas for Medical Sciences (UAMS) Institutional Animal Care and Use Committee established by the National Institutes of Health's Guide for the Care and Use of Laboratory Animals (1996). Male Sprague-Dawley rats weighing 250-300 grams were housed three per cage with ad libitum access to food and water in the Division of Laboratory Animal Resources, UAMS. Rats were anesthetized with isofluorane (2-5%)/oxygen (1.5-2.0 L/min) and surgically implanted with cannulae in the jugular (i.v. dosing) and femoral (blood sampling) veins. […] Following appropriate evidence of successful recovery from surgery, IV or oral dosing was performed and blood samples (0.15 mL) were collected at 0, 5, 15, 30, 45, 60, 120, 240 and 480 min. Plasma samples were prepared and analysis was run using a LC/MS/MS spectrometry.
For the i.v. injection, a total volume of 0.8 mL/kg was used at a dose of 1.6 mg/kg (eq. to 1 mg/kg of 2,4-DNP). For the oral route, stock solutions of II-38 containing eq. to 1, 5 and 25 mg/mL of 2,4-DNP were prepared and administered to rats at final doses eq. to 1, 5 and 25 mg/kg of 2,4-DNP, respectively. An oral dose of 8 mg/kg of II-38 (eq. to 5 mg/kg) was dissolved in a phosphate-saline buffer solution, pH 7.4 containing 5% DMSO and 20% PEG-400, while a dose of 40 mg/kg (eq. to 25 mg/kg) was formulated with 0.5% methyl cellulose (methocel) containing 1% DMSO. A high dose of II-38 (eq. 50 mg/kg) was formulated with water containing 1% DMSO and 40% PEG-400. Because of the different vehicles used in formulations of II-38, a dose eq. to 25 mg/kg of 2,4-DNP was repeated using a vehicle consisting of DMSO, PEG-400, and water (1%: 40%: 59%). The later dose was utilized for comparison of PK data of 2,4-DNP-released from II-38 for differences in formulations.
Jugular and femoral vein-catheterized Sprague-Dawley male rats (weights 250-300 g, n=4) were treated with II-38 at a single oral dose of 8, 40 and 80 mg/kg (eq. to 5, 25 and 50 mg/kg of 2,4-DNP, respectively) or injected a single i.v. dose of 1.6 mg/kg of II-38 (eq. to 1 mg/kg 2,4-DNP, n=2). Blood samples (0.15 mL) were collected at 0, 5, 15, 30, 45, 60, 120, 240 and 480 min. Plasma samples were prepared and 2,4-DNP, II-38 and 2,4-DNP-released from II-38 concentrations were quantitated using the LC/MS/MS spectrometry assay method described below.
To isolate the analytes from rat plasma, 50 μL of control or treated plasma fortified with 10 μL of 2,4-DNP-d3 (10 μg/mL) as an internal standard to which 0.3 mL of methanol followed by 0.3 mL of acetonitrile was added. The mixture was vortex-mixed for 30 s and centrifuged for 10 min at 10,000 rpm at room temperature. The supernatant was transferred into 5 mL glass tubes and evaporated to dryness at 37° C. under nitrogen gas. The pellet was reconstituted with 50 μL of acetonitrile, vortex-mixed for 30 sec, followed by sonication for 1 min. Following centrifugation at 1000 rpm for 10 min at room temperature, 5 μL of the supernatant was then injected onto the column, and analytes were quantified by a LC/MS/MS spectrometry.
1—Plasma concentrations of 2,4-DNP after a single i.v. injection of 2,4-DNP of 1 mg/kg or 5 mg/kg oral administration; 2—Plasma concentrations of II-38 and 2,4-DNP-released from II-38 after an i.v. injection 1.6 mg/kg of II-38 eq. to 1 mg/kg of 2,4-DNP or an oral dose of 8, 40 and 80 mg/kg of II-38 eq. to 5, 25 and 50 mg/kg of 2,4-DNP, respectively. […]

[2] = system: noise induced hearing loss; assay: In vivo noise exposure, Compound Action Potential threshold; design: species or system Rats; settings: for CAP threshold (compound + Noise): noise 8 h, 105 dB, 8-16 kHz, 5 days oral gavage q.d., 2,4-DNP 5 mpk, II-38 80 mpk, 1-week post exposure; for threshold lower than Noise alone group: same study, Noise alone 25 dB
Description: In vivo Noise Exposure Pilot DNP (2,4-DNP) & Prodrug of DNP (II-38): Rats, N=6/group: control, noise alone, noise+2,4-DNP (5 mpk), noise+II-38 (80 mpk). Noise exposure: 8 h, 105 dB, noise band 8-16 kHz. Treatment duration 5 days oral gavage q.d. starting day of noise. Endpoint: Compound Action Potential (CAP) recorded from the round window membrane 1-week post exposure. Threshold: intensity in dB SPL needed to produce 4 μV CAP amplitude.

[3] = male, Sprague-Dawley, rat, in vivo, iv, 1.6 mg/kg, single i.v. injection of II-38 1.6 mg/kg (eq. to 1 mg/kg 2,4-DNP), n = 2
[4] = male, Sprague-Dawley, rat, in vivo, po, 5 mg/kg, oral II-38 eq. to 5 mg/kg of 2,4-DNP
[5] = male, Sprague-Dawley, rat, in vivo, po, 25 mg/kg, oral II-38 eq. to 25 mg/kg of 2,4-DNP, PEG-400
[6] = male, Sprague-Dawley, rat, in vivo, po, 25 mg/kg, oral II-38 eq. to 25 mg/kg of 2,4-DNP, methocel
[7] = male, Sprague-Dawley, rat, in vivo, po, 50 mg/kg, oral II-38 eq. 50 mg/kg of 2,4-DNP

In the case of O=[N+]([O-])c1ccc(O)c([N+](=O)[O-])c1 [2,4-DNP, 2,4-dinitrophenol], the “fold increased level of 2,4-DNP after oral 2,4-DNP compared to 2,4-DNP released from II-38” value (“fold increased level of 2,4-DNP” below) ([1]; 2,4-DNP 5 mg/kg oral vs II-38 oral eq. to 5 mg/kg) is reported as “approximately 12.0 fold”, the “fold increased level of 2,4-DNP” value ([1]; 2,4-DNP 5 mg/kg oral vs II-38 oral eq. to 25 mg/kg (PEG-400)) is reported as ~3.4 fold and the “fold increased level of 2,4-DNP” value ([1]; 2,4-DNP 5 mg/kg oral vs II-38 oral eq. to 25 mg/kg (methocel)) is reported as ~2.2 fold. The “fold increased level of 2,4-DNP” value ([1]; 2,4-DNP 5 mg/kg oral vs II-38 oral eq. to 50 mg/kg) was ~1.4 fold, the “CAP threshold (compound + Noise)” value [2] was 15 dB and the “threshold lower than Noise alone group” value [2] was “about 10 dB”.

With O=C(Oc1ccc([N+](=O)[O-])cc1[N+](=O)[O-])N1CCOCC1 [II-38, 2,4-Dinitrophenyl morpholine-4-carboxylate] the AUC [1, 3] was 8600 ng·h/mL, the Cmax [1, 3] was 900 ± 50 ng/mL and the half-life [1, 3] was 6.89 ± 1.09 h. It also gave a clearance ([1]; male, Sprague-Dawley, rat, in vivo, iv, single i.v. injection of II-38 1.6 mg/kg (eq. to 1 mg/kg 2,4-DNP), n = 2, read-out: Cl of II-38) of 3.1 ± 0.3 mL/min/kg, a Vd ([1]; male, Sprague-Dawley, rat, in vivo, iv, single i.v. injection of II-38 1.6 mg/kg (eq. to 1 mg/kg 2,4-DNP), n = 2, read-out: Vss of II-38) of 1.86 ± 0.101 L/kg and an AUC [1, 4] of 15000 ng·h/mL. The Cmax [1, 4] was 1100 ± 200 ng/mL, the Tmax [1, 4] was 2.19 h and the bioavailability [1, 4] was 44.8 ± 4.4%. It also gave a half-life [1, 4] of 15.2 ± 7 h, an AUC [1, 5] of 14600 ng·h/mL and a Cmax [1, 5] of 2410 ± 300 ng/mL. It also gave a Tmax [1, 5] of 1.5 h, a bioavailability [1, 5] of 21.3 ± 0.9% and a half-life [1, 5] of 7.41 ± 3.06 h. For the same compound, the AUC [1, 6] was 18400 ng·h/mL, the Cmax [1, 6] was 1800 ± 300 ng/mL and the Tmax [1, 6] was 0.458 h. For the same compound, the bioavailability [1, 6] was 31.6 ± 1.2%, the half-life [1, 6] was 11 ± 4.2 h and the AUC [1, 7] was 24300 ng·h/mL. For the same compound, the Cmax [1, 7] was 1900 ± 600 ng/mL, the Tmax [1, 7] was 1.69 h and the bioavailability [1, 7] was 24.5 ± 1.1%. The half-life [1, 7] was 17.7 ± 6.96 h, the “CAP threshold (compound + Noise)” value [2] was 5 dB and the “threshold lower than Noise alone group” value [2] was “approximately 20 dB”.
